Source: PMC3683042, “Solution Structure and Peptide Binding of the PTB Domain from the AIDA1 Postsynaptic Signaling Scaffolding Protein” (PLoS ONE, 2013)
Blank lines part the entries; values can stand above or below the molecule they belong to. Residues, ends and D or L forms follow the SMILES beside them. *: point of attachment. FITC = O=C1OC2(c3ccc(O)cc3Oc3cc(O)ccc32)c2ccc(NC(=S)*)cc21

Columns and labels:
[1] = system: AIDA1 PTB domain; assay: Binding of APP peptides to the AIDA1 PTB domain; design: species or system human
Description: A gene fragment encoding the PTB domain (aa. 1043–1195) of human AIDA1b was PCR amplified with NdeI and EcoRI restriction sites and was subsequently inserted into pET28a (Novagen). The expressed protein contained an amino terminal 6xHis tag and intervening thrombin site. Other PTB domain fragments that lacked either the N-terminal 6xHis tag or the entire affinity tag along with 16 additional unstructured residues were also as […] as the fragment chosen for this study. To align the PTB domain described in this study with numerous AIDA1 isoforms, S1 in the PTB domain structure corresponds to S1045 in AIDA1b, the longest isoform. A one-liter fermentation in a minimal medium containing 1 g of ^15NH4Cl and 4 g of ^13C-glucose was sufficient to produce 5–10 mg of purified protein. Purification was achieved by Nickel-NTA affinity chromatography (Qiagen) and gel filtration chromatography on a S-100 HR 16/60 size exclusion column (GE Biosciences). Final buffer conditions were 20 mM Na-phosphate, pH 7.8, 0.15 M NaCl, 0.05% (w/v) NaN3. […] A 6xHis tagged PTB domain variant containing all five substitutions (PTB5M) was produced by DNA2.0 (Menlo Park, CA) by direct gene synthesis in the expression vector, pJExpress401 (T5 promoter plus kanamycin resistance). A 6xHis-tagged, APP-peptide ([…]) fused to the amino terminus of the AIDA1 PTB5M mutant with an intervening thrombin site was also synthesized by DNA2.0 in pJExpress401.
(§1) Fluorescein isothiocyanate (FITC) labeled peptides spanning portions of APP were produced and purified by CanPeptide (Montreal, QC) for fluorescence anisotropy based binding studies at 25°C using an Agilent Eclipse spectrophotometer equipped with a manual polarizer accessory. Buffer conditions were similar to those used for NMR spectroscopy. […] Anisotropy was calculated from the relationship (Iparallel–GIperp)/(Iparallel[…]) and normalized with the blank experiment. The equilibrium dissociation constant (KD) was calculated by direct fitting the titration curves with a standard two-state relationship using proFit 6.2 (Quantsoft).

[2] = molecular target: T1, AIDA1 PTB domain, PTB5M mutant (Homo sapiens, UniProt Q7Z6G8, F1057A/F1065A/Y1047A/Y1111A/Y1172A); assay: Fluorescence anisotropy binding of FITC-labeled APP peptides to PTB5M; conditions: FITC-labeled peptide, 25°C, buffer similar to NMR (20 mM Na-phosphate, pH 7.8, 0.15 M NaCl), two-state fit, n = 4 (APP-32), n = 2 (APP-17), n = 1 (APP-17{pY})
T1 construct: A gene fragment encoding the PTB domain (aa. 1043–1195) of human AIDA1b; 6xHis; made in house; host or cells: gene synthesised by DNA2.0 in pJExpress401
T1 sequence (Q7Z6G8 1043-1195 Y1047A/F1057A/F1065A/Y1111A/Y1172A): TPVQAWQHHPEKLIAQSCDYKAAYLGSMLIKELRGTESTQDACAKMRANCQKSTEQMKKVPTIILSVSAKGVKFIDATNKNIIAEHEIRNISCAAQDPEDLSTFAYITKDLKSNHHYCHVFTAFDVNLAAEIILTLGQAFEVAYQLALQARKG
Description: (§2) A gene fragment encoding the PTB domain (aa. 1043–1195) of human AIDA1b was PCR amplified with NdeI and EcoRI restriction sites and was subsequently inserted into pET28a (Novagen). The expressed protein contained an amino terminal 6xHis tag and intervening thrombin site. Other PTB domain fragments that lacked either the N-terminal 6xHis tag or the entire affinity tag along with 16 additional unstructured residues were also as […] as the fragment chosen for this study. To align the PTB domain described in this study with numerous AIDA1 isoforms, S1 in the PTB domain structure corresponds to S1045 in AIDA1b, the longest isoform. A one-liter fermentation in a minimal medium containing 1 g of ^15NH4Cl and 4 g of ^13C-glucose was sufficient to produce 5–10 mg of purified protein. […]
as §1, with “accessory.” for “accessory. Buffer conditions were similar to those used for NMR spectroscopy.”

[3] = molecular target: T2, AIDA1 PTB domain, Y70A mutant (PTBY70A) (Homo sapiens, UniProt Q7Z6G8, Y1111A); assay: Fluorescence anisotropy binding of FITC-labeled APP peptides to PTBY70A; conditions: FITC-labeled peptide, 25°C, buffer similar to NMR (20 mM Na-phosphate, pH 7.8, 0.15 M NaCl), two-state fit, n = 4 (APP-32), n = 2 (APP-17)
T2 construct: A gene fragment encoding the PTB domain (aa. 1043–1195) of human AIDA1b; 6xHis tag with thrombin site (N); made in house; host or cells: pET28a vector
T2 sequence (Q7Z6G8 1040-1192 Y1111A): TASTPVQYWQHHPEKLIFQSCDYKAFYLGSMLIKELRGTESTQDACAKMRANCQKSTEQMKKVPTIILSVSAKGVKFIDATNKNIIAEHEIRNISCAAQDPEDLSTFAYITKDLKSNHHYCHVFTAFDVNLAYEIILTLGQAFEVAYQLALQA
Description: as §2
as §1, with “accessory.” for “accessory. Buffer conditions were similar to those used for NMR spectroscopy.”

[4] = molecular target: Fe65 PTB2 domain; conditions: Discussion; read-out: dissociation constant, Fe65 (given jointly for X11/Fe65); cited from earlier work
Description: One threonine (T668) in APP located in this extended region is susceptible to phosphorylation and acts as a switch that repartitions the cis and trans states of the adjacent proline (P669) that, in turn, affects the ability of Fe65 to engage its ligand. […] This difference in affinity may be advantageous for AIDA1 to participate in signaling contexts beyond APP. From a peptide array study, we determined that the consensus sequence is less stringent NxxY versus NPxY for others in the same Dab-like class of PTB domains. Thus, at the neuronal synapse, AIDA1 could serve as a versatile collator and ...

[5] = molecular target: X11 PTB domain; conditions: Discussion; read-out: dissociation constant, X11 (given jointly for X11/Fe65); cited from earlier work
Description: This difference in affinity may be advantageous for AIDA1 to participate in signaling contexts beyond APP. From a peptide array study, we determined that the consensus sequence is less stringent NxxY versus NPxY for others in the same Dab-like class of PTB domains. Thus, at the neuronal synapse, AIDA1 could serve as a versatile collator and ...

binding affinity to the AIDA1 PTB domain, long versus short APP peptide ([1]; fluorescence anisotropy titration, in words): no differences in binding affinity
Molecule: CSCC[C@H](NC(=O)[C@H](CCC(N)=O)NC(=O)[C@H](CCC(=O)O)NC(=O)[C@H](Cc1ccccc1)NC(=O)[C@H](Cc1ccccc1)NC(=O)[C@H](CCCCN)NC(=O)[C@H](Cc1ccc(O)cc1)NC(=O)[C@@H](NC(=O)[C@@H]1CCCN1C(=O)[C@H](CC(N)=O)NC(=O)[C@H](CCC(=O)O)NC(=O)[C@H](Cc1ccc(O)cc1)NC(=O)CNC(=O)[C@H](CC(N)=O)NC(=O)[C@H](CCC(N)=O)NC(=O)CNC(=O)CNC(=S)Nc1ccc2c(c1)C(=O)OC21c2ccc(O)cc2Oc2cc(O)ccc21)[C@@H](C)O)C(=O)N[C@@H](CCC(N)=O)C(=O)N[C@@H](CC(N)=O)C(=O)O [APP-17] ({FITC}-GGQNGYENPTYKFFEQMQN-OH; C-terminus assumed)

Kd [2]: 14.8 ± 1 µM
Kd [3]: 13.3 ± 1.5 µM
Molecule: CSCC[C@H](NC(=O)[C@H](CCC(N)=O)NC(=O)[C@H](CCC(=O)O)NC(=O)[C@H](Cc1ccccc1)NC(=O)[C@H](Cc1ccccc1)NC(=O)[C@H](CCCCN)NC(=O)[C@H](Cc1ccc(O)cc1)NC(=O)[C@@H](NC(=O)[C@@H]1CCCN1C(=O)[C@H](CC(N)=O)NC(=O)[C@H](CCC(=O)O)NC(=O)[C@H](Cc1ccc(O)cc1)NC(=O)CNC(=O)[C@H](CC(N)=O)NC(=O)[C@H](CCC(N)=O)NC(=O)[C@H](CCC(N)=O)NC(=O)[C@H](CCSC)NC(=O)[C@H](CCCCN)NC(=O)[C@H](CO)NC(=O)[C@H](CC(C)C)NC(=O)[C@H](Cc1c[nH]cn1)NC(=O)[C@H](CCCNC(=N)N)NC(=O)[C@H](CCC(=O)O)NC(=O)[C@H](CCC(=O)O)NC(=O)[C@@H]1CCCN1C(=O)[C@@H](NC(=O)[C@@H](NC(=O)[C@H](C)NC(=O)[C@H](C)NC(=O)[C@H](CC(=O)O)NC(=O)CNC(=O)CN)C(C)C)[C@@H](C)O)[C@@H](C)O)C(=O)N[C@@H](CCC(N)=O)C(=O)N[C@@H](CC(N)=O)C(=O)O [APP-32] (H-GGDAAVTPEERHLSKMQQNGYENPTYKFFEQMQN-OH)

Kd ([1]; approximate value of text/abstract): ~10 µM
affinity of the AIDA1 PTB domain (in words) ([1]; relative to similar APP binding proteins such as X11/Fe65): moderate
Molecule: amyloid protein precursor (APP): amyloid protein precursor (APP)
Kd [4]: < 1 µM
Kd [5]: < 1 µM
